{"source": "paper PMC11637483", "about": "“Dissecting caspase-2-mediated cell death: from intrinsic PIDDosome activation to chemical modulation” (Protein & Cell, 2024)", "key": {"[1]": {"tested_on": "HeLa-CASP2/CASP3/GSDMD TKO + CASP2 cells (human caspase-2)", "assay": "ATP-based cell viability (CellTiter-Glo) in HeLa TKO cells with exogenous caspase-2 expression", "conditions": "for pEC50: Homo sapiens, HeLa, ATP-based viability, HeLa TKO cells with exogenous caspase-2, titrated compound", "excerpt": "Specific chemical compounds are powerful tools for dissecting target-related signaling mechanisms in biological contexts ([Beck et al., 2022]; [Zhang et al., 2012]). Prompted by this notion and possibly to identify a compound that could activate the PIDDosome, we designed a cell death-based high-throughput chemical screen in HeLa cells, in which a triple knockout of CASP2, CASP3, and GSDMD were constructed. CASP3 and GSDMD deficiency served as the background to minimize compound-induced nonspecific cytotoxicity and undesired pyroptosis. Using the triple knockout cells as the control, additional expression of exogenous caspase-2 allows the identification of compounds that can specifically activate the caspase-2-BID pathway and trigger apoptosis through caspase-7. […] In accordance with the apoptosis induction, HUHS015 induced evident processing of caspase-2 expressed in the triple-knockout cells (Fig. 3B). This indicated activation of caspase-2 as the protease-deficient C320A mutant of caspase-2 was not processed upon HUHS015 treatment (Fig. 3B). Accordingly, expression of caspase-2 C320A rendered no cell death in response to HUHS015 treatment (Fig. 3B).\nFigure 3. Chemical screen identifies HUHS015 as an agonist of human caspase-2. (A) Screen raw data and selectivity analyses of the compound plate containing HUHS015. The ATP-based viability data of both HeLa-CASP2^−/−CASP3^−/−GSDMD^−/− (TKO) (control group) and TKO cells with exogenous caspase-2 expression (experimental group) are shown. The ratios of the cell viability between the two groups are calculated with 3 as a cutoff for positive compound hit selection. (B) HUHS015-induced cell death depends on caspase-2 activity. HeLa TKO cells expressing WT or enzymatically deficient C320A mutant of caspase-2 were treated with HUHS015. ATP-based cell viability and immunoblotting of caspase-2 cleavage are shown. (C and F) The structures and potencies of HUHS15 (C) and its optimized derivative HUHS15-036 (F). HeLa TKO cells with exogenous caspase-2 expression were treated with titrated compounds. The ATP-based viability data were plotted with compound concentration for EC50 calculation. (D) BID is required for HUHS15-induced caspase-2-dependent cell death. […] Processing of caspase-2, -3, and -7 was analyzed by immunoblotting. […] ATP-based cell viability in panels (B and D) is expressed as mean ± s.d. from three technical replicates. […]\nCell viability was measured by the ATP assay using the CellTiter-Glo® Luminescent Cell Viability Assay kit (Promega).\nDrug-related Screening Library (25 × 384-well plate, more than 7,000 compounds) was used for the chemical screen in the TKO HeLa cells rescued with exogenous caspase-2 expression. […] After treatment for 12 h, the cell viability was measured by the ATP assay. […]"}, "[2]": {"tested_on": "caspase-2-expressing HeLa cells with BID, RAIDD or PIDD1 knockout", "assay": "Compound-induced caspase-2 activation and cell death in pathway-gene knockout HeLa cells", "assay_type": "cell-based, human", "procedure": "Figure 3. Chemical screen identifies HUHS015 as an agonist of human caspase-2. (A) Screen raw data and selectivity analyses of the compound plate containing HUHS015. The ATP-based viability data of both HeLa-CASP2^−/−CASP3^−/−GSDMD^−/− (TKO) (control group) and TKO cells with exogenous caspase-2 expression (experimental group) are shown. The ratios of the cell viability between the two groups are calculated with 3 as a cutoff for positive compound hit selection. (B) HUHS015-induced cell death depends on caspase-2 activity. HeLa TKO cells expressing WT or enzymatically deficient C320A mutant of caspase-2 were treated with HUHS015. ATP-based cell viability and immunoblotting of caspase-2 cleavage are shown. (C and F) The structures and potencies of HUHS15 (C) and its optimized derivative HUHS15-036 (F). HeLa TKO cells with exogenous caspase-2 expression were treated with titrated compounds. The ATP-based viability data were plotted with compound concentration for EC50 calculation. (D) BID is required for HUHS15-induced caspase-2-dependent cell death. WT and BID^−/− (KO) HeLa TKO cells with exogenous caspase-2 expression, as well as the knockout cells rescued with WT or D60E mutant of BID were treated with HUHS15. ATP-based cell viability and immunoblotting detecting caspase-2 and BID processing are shown. (E) HUHS15-induced caspase-3/7 activation relies on caspase-9 but is independent of PIDDosome. CASP2^−/− (KO) HeLa cells with exogenous caspase-2 expression in the indicated knockout background were treated with HUHS15. Processing of caspase-2, -3, and -7 was analyzed by immunoblotting. (G) Top gRNA hits from the genetic screen of HUHS015-36-induced apoptosis in HeLa TKO cells with exogenous caspase-2 expression. In all the data, indicated cells were treated with the compound for 5 h (for HUHS015-36) or 9 h (for HUHS015) before cell viability measurement and immunoblotting analyses. ATP-based cell viability in panels (B and D) is expressed as mean ± s.d. from three technical replicates. Data in panels (B–F) are representative of three independent experiments. […]"}}, "note": "pEC50: −log10 of the molar value. Where two headings read alike, the source gives them in different places."}
{"smiles": "Cc1cccc2nc(-n3nc4c(c3O)CCCC4)[nH]c12", "note": "[HUHS015-36]", "values": [{"measurement": "pEC50", "setting": "[1]; read-out: EC50, caspase-2-mediated cell death", "value": 7.22}, {"measurement": "treated cells that underwent apoptosis", "setting": "[1]; pool of CRISPR-Cas9 mutagenized caspase-2-expressing TKO HeLa cells, genetic screen", "value": "Over 95%"}, {"measurement": "caspase-2 activation and cell death", "setting": "[2]; PIDD1 or RAIDD knockout, 5 h", "value": "neither PIDD1 nor RAIDD deficiency had any effects"}]}
{"smiles": "Cc1ccc2nc(-n3nc(C)c(Cc4ccccc4)c3O)[nH]c2c1", "note": "[HUHS015]", "values": [{"measurement": "pEC50", "setting": "[1]; read-out: EC50 (half-maximal effective concentration), caspase-2-mediated cell death", "value": "~5.17"}, {"measurement": "cell death", "setting": "[2]; BID knockout", "value": "diminished"}, {"measurement": "caspase-2 processing and caspase-3/7 activation", "setting": "[2]; RAIDD knockout", "value": "could still induce caspase-2 processing as well as caspase-3/7 activation"}]}
